Measured values published in ChEMBL document CHEMBL4118092, “Synthesis and Activity of a New Series of Antileishmanial Agents” (ACS Med Chem Lett, 2017).

How the values were obtained:
J774.A1 = assay: Cytotoxicity against mouse J774.A1 cells after 72 hrs by MTS assay; assay type: cell-based; settings: J774.A1, 72 h
Leishmania donovani [1] = assay: Antileishmanial activity against Leishmania donovani axenic amastigotes after 72 hrs by CellTiter reagent based assay; assay type: functional, organism-based
Leishmania donovani [2] = assay: Antileishmanial activity against Leishmania donovani axenic amastigotes infected in mouse J774 cells after 72 hrs by Draq5 staining based assay; assay type: functional, organism-based; settings: J774, 72 h
[3] = Kinetic solubility of the compound in pH 7.4 PBS buffer; assay type: physicochemical; settings: read-out: Kinetic_solubility

SMILES | IC50 (J774.A1) [µM] | IC50 (Leishmania donovani [1]) [nM] | IC50 (Leishmania donovani [2]) [nM] | solubility kinetic [3] [µM]
Cc1nn(-c2ccc3c(N)ncnc3c2)c2c1C(=O)CC(C)(C)C2 | > 50 | 2420 | 1330 | 
COCCCNc1cc(-n2nc(C)c3c2CN(C(=O)COC)CC3=O)ccc1C(N)=O | > 50 | 4480 | 3580 | 
CCC(=O)N1CC(=O)c2c(C)nn(-c3ccc(C(N)=O)c(NCCCOC)c3)c2C1 | > 50 | 6430 | 3540 | 
COCCCNc1cc(-n2nc(C)c3c2CC(C)(C)CC3=O)ccc1C(N)=O | 3.52 | 650 | 880 | 
COCCCNc1cc(-n2nc(C)c3c2CN(C(N)=O)CC3=O)ccc1C(N)=O | > 50 | > 20000 | > 10000 | 
COCCCNc1cc(-n2nc(C)c3c2CN(C(C)=O)CC3=O)ccc1C(N)=O | > 50 | 13900 | 1060 | > 490
COCCCNc1cc(-n2nc(C)c3c2CN(C(=O)c2ccc(C)cc2)CC3=O)ccc1C(N)=O | 26.3 | 2600 | 1750 | 
COCCCNc1cc(-n2nc(C)c3c2CN(S(C)(=O)=O)CC3=O)ccc1C(N)=O | 25.5 | > 20000 | 5380 | 
COCCCNc1cc(-n2nc(C)c3c2CN(C(=O)C(C)C)CC3=O)ccc1C(N)=O | 37.3 | 1900 | 3540 | 
COCCCNc1cc(-n2nc(C)c3c2CN(Cc2ccccc2)CC3=O)ccc1C(N)=O | > 50 | 2290 | 6330 | 
COCCCNc1cc(-n2nc(C)c3c2CNCC3=O)ccc1C(N)=O | > 50 | 3900 | > 10000 | 
COCCCNc1cc(-n2nc(C)c3c2CN(C(=O)NCc2ccccc2)CC3=O)ccc1C(N)=O | > 50 | > 20000 | > 10000 | 
COCCCNc1cc(-n2nc(C)c3c2CN(C(=O)C2CCCC2)CC3=O)ccc1C(N)=O | > 50 | 2990 | 1520 | 
COCCCNc1cc(-n2nc(C)c3c2CCCC3=O)ccc1C(N)=O | > 50 | > 25000 | > 10000 | 
CCCCCCCCCCCCCCCCOP(=O)([O-])OCC[N+](C)(C)C [MILTEFOSINE] | > 50 | 3260 | 1430 | 
C[C@@H]1C[C@H]2O[C@@H]2/C=C\C=C\C(=O)Cc2c(Cl)c(O)cc(O)c2C(=O)O1 [RADICICOL] | 2.35 | 620 | 290 | 
CC1(C)CC(=O)c2c(C(F)(F)F)nn(-c3ccc(C(N)=O)c(N[C@H]4CC[C@H](O)CC4)c3)c2C1 [SNX-2112] | < 0.06 | 420 | 610 | 
